Target: T1, N-terminal HiBiT tagged BCL6 (Homo sapiens, UniProt P41182)
T1 construct: expressed in transfected cells; host or cells: HT1080 (ATCC CCL-121), stably transduced with lentivirus pLV-UBC-N-HiBiT-BCL6-PGK-puro
Assay: HiBiT based degradation assay
Assay type: cell-based
Settings: HT1080 cells expressing N-terminal HiBiT tagged BCL6, 5 hours of incubation; for Ymin (5 hr): BCL6 degradation normalized with DMSO control; for DC50: four-parameter logistic model, read-out: EC50 (5 hr)
Procedure, shortened: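 Degradation measured by luminescence from the Nano-Glo HiBiT lytic reagent (15 min, room temperature), normalized to DMSO controls and fitted to a four-parameter curve.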

SMILES	Ymin (5 hr)	DC50
CNC(=O)COc1cc2cc(Nc3nc(N4CC[C@@H](CN5CCN(c6cccc7c(C8CCC(=O)NC8=O)nn(C)c67)CC5)[C@H](C)C4)ncc3Cl)cnc2n(C(C)C)c1=O (stereo partly drawn) [Compound 177c, 2-[[6-[[5-chloro-2-[(3S,4R)-4-[[4-[3-(2,6-dioxo-3-piperidyl)-1-methyl-indazol-7-yl]piperazin-1-yl]methyl]-3-methyl-1-piperidyl]pyrimidin-4-yl]amino]-1-isopropyl-2-oxo-1,8-naphthyridin-3-yl]oxy]-N-methyl-acetamide]	+++ (30% ≤ Ymin < 50%)	0.1 to 1 µM
CNC(=O)COc1cc2cc(Nc3nc(N4CCN([C@@H](C)C5CCN(c6cccc7c(C8CCC(=O)NC8=O)nn(C)c67)CC5)CC4)ncc3Cl)cnc2n(C(C)C)c1=O (single isomer, unassigned) [Compound 195a]	++++ (Ymin < 30%)	0.01 to 0.1 µM
CNC(=O)COc1cc2cc(Nc3nc(N4CCN(CC5CCN(c6cccc7c(C8CCC(=O)NC8=O)nn(C)c67)CC5)[C@@H](C)C4)ncc3Cl)cnc2n(C(C)C)c1=O (stereo partly drawn) [Compound 105a, 2-((6-((5-chloro-2-((3S)-4-((1-(3-(2,6-dioxopiperidin-3-yl)-1-methyl-1H-indazol-7-yl)piperidin-4-yl)methyl)-3-methylpiperazin-1-yl)pyrimidin-4-yl)amino)-1-isopropyl-2-oxo-1,2-dihydro-1,8-naphthyridin-3-yl)oxy)-N-methylacetamide]	++++ (Ymin < 30%)	0.01 to 0.1 µM
CNC(=O)COc1cc2cc(Nc3nc(N4CCN(c5ccc6c(C7CCC(=O)NC7=O)nn(C)c6c5)CC4)ncc3Cl)cnc2n(C(C)C)c1=O (stereo not shown) [Compound 165, 2-[[6-[[5-chloro-2-[4-[3-(2,6-dioxo-3-piperidyl)-1-methyl-indazol-6-yl]piperazin-1-yl]pyrimidin-4-yl]amino]-1-isopropyl-2-oxo-1,8-naphthyridin-3-yl]oxy]-N-methyl-acetamide]	++ (50% ≤ Ymin < 70%)	< 0.01 µM
CNC(=O)COc1cc2cc(Nc3nc(N4CC5(CCC(Nc6ccc(F)c7c(C8CCC(=O)NC8=O)nn(C)c67)CC5)C4)ncc3Cl)cnc2n(C(C)C)c1=O (stereo not shown) [Compound 198, 2-[[6-[[5-chloro-2-[7-[[3-(2,6-dioxo-3-piperidyl)-4-fluoro-1-methyl-indazol-7-yl]amino]-2-azaspiro[3.5]nonan-2-yl]pyrimidin-4-yl]amino]-1-isopropyl-2-oxo-1,8-naphthyridin-3-yl]oxy]-N-methyl-acetamide]	++ (50% ≤ Ymin < 70%)	0.01 to 0.1 µM
CNC(=O)COc1cc2cc(Nc3nc(N4CCC(CN5CCCN(c6ccc7c(C8CCC(=O)NC8=O)nn(C)c7c6)CC5)CC4)ncc3Cl)cnc2n(C(C)C)c1=O (stereo not shown) [Compound 235, 2-[[6-[[5-chloro-2-[4-[[4-[3-(2,6-dioxo-3-piperidyl)-1-methyl-indazol-6-yl]-1,4-diazepan-1-yl]methyl]-1-piperidyl]pyrimidin-4-yl]amino]-1-isopropyl-2-oxo-1,8-naphthyridin-3-yl]oxy]-N-methyl-acetamide]	+++ (30% ≤ Ymin < 50%)	0.01 to 0.1 µM
CNC(=O)COc1cc2cc(Nc3nc(N4CCC(CC5CCN(c6ccc7c(C8CCC(=O)NC8=O)nn(C)c7c6)CC5)CC4)ncc3Cl)cnc2n(C)c1=O (stereo not shown) [Compound 140, 2-((6-((5-chloro-2-(4-((1-(3-(2,6-dioxopiperidin-3-yl)-1-methyl-1H-indazol-6-yl)piperidin-4-yl)methyl)piperidin-1-yl)pyrimidin-4-yl)amino)-1-methyl-2-oxo-1,2-dihydro-1,8-naphthyridin-3-yl)oxy)-N-methylacetamide]	+++ (30% ≤ Ymin < 50%)	< 0.01 µM
CNC(=O)COc1cc2cc(Nc3nc(N4CCN(CC5CCN(c6cccc7c(C8CCC(=O)NC8=O)nn(C)c67)CC5)C(C)(C)C4)ncc3Cl)cnc2n(C(C)C)c1=O (stereo not shown) [Compound 172, 2-[[6-[[5-chloro-2-[4-[[1-[3-(2,6-dioxo-3-piperidyl)-1-methyl-indazol-7-yl]-4-piperidyl]methyl]-3,3-dimethyl-piperazin-1-yl]pyrimidin-4-yl]amino]-1-isopropyl-2-oxo-1,8-naphthyridin-3-yl]oxy]-N-methyl-acetamide]	+++ (30% ≤ Ymin < 50%)	0.01 to 0.1 µM
CNC(=O)COc1cc2cc(Nc3nc(N4CCN(CC5CCN(c6cccc7c(C8CCC(=O)NC8=O)nn(C)c67)CC5)CC4)ncc3Cl)cnc2n(CC(F)(F)F)c1=O (stereo not shown) [Compound 170, 2-[[6-[[5-chloro-2-[4-[[1-[3-(2,6-dioxo-3-piperidyl)-1-methyl-indazol-7-yl]-4-piperidyl]methyl]piperazin-1-yl]pyrimidin-4-yl]amino]-2-oxo-1-(2,2,2-trifluoroethyl)-1,8-naphthyridin-3-yl]oxy]-N-methyl-acetamide]	++++ (Ymin < 30%)	0.01 to 0.1 µM
CNC(=O)COc1cc2cc(Nc3cc(N4CCC(CN5CCN(c6cccc7c(C8CCC(=O)NC8=O)nn(C)c67)CC5)CC4)ncc3Cl)cnc2n(C(C)C)c1=O (stereo not shown) [Compound 152, 2-((6-((5-chloro-2-(4-((4-(3-(2,6-dioxopiperidin-3-yl)-1-methyl-1H-indazol-7-yl)piperazin-1-yl)methyl)piperidin-1-yl)pyridin-4-yl)amino)-1-isopropyl-2-oxo-1,2-dihydro-1,8-naphthyridin-3-yl)oxy)-N-methylacetamide]	+++ (30% ≤ Ymin < 50%)	0.01 to 0.1 µM
CNC(=O)COc1cc2cc(Nc3nc(N4CC5(CN(CC6CCN(c7cccc8c(C9CCC(=O)NC9=O)nn(C)c78)CC6)C5)C4)ncc3Cl)cnc2n(C)c1=O (stereo not shown) [Compound 119, 2-((6-((5-chloro-2-(6-((1-(3-(2,6-dioxopiperidin-3-yl)-1-methyl-1H-indazol-7-yl)piperidin-4-yl)methyl)-2,6-diazaspiro[3.3]heptan-2-yl)pyrimidin-4-yl)amino)-1-methyl-2-oxo-1,2-dihydro-1,8-naphthyridin-3-yl)oxy)-N-methylacetamide]	+++ (30% ≤ Ymin < 50%)	< 0.01 µM
CNC(=O)COc1cc2cc(Nc3cc(N4CCC(CN5CCN(c6cccc7c(C8CCC(=O)NC8=O)nn(C)c67)[C@@H](C)C5)CC4)ncc3Cl)cnc2n(C(C)C)c1=O (stereo partly drawn) [Compound 217b, 2-[[6-[[5-chloro-2-[4-[[(3S)-4-[3-(2,6-dioxo-3-piperidyl)-1-methyl-indazol-7-yl]-3-methyl-piperazin-1-yl]methyl]-1-piperidyl]-4-pyridyl]amino]-1-isopropyl-2-oxo-1,8-naphthyridin-3-yl]oxy]-N-methyl-acetamide]	+ (Ymin ≥ 70%)	≥ 1 µM
CNC(=O)COc1cc2cc(Nc3nc(N4CCC(O[C@H]5C[C@H](N6CCN(c7ccc8c(C9CCC(=O)NC9=O)nn(C)c8c7)CC6)C5)CC4)ncc3Cl)cnc2n(C(C)C)c1=O (stereo partly shown) [Compound 226a, 2-((6-((5-chloro-2-(4-((1r,3r)-3-(4-(3-(2,6-dioxopiperidin-3-yl)-1-methyl-1H-indazol-6-yl)piperazin-1-yl)cyclobutoxy)piperidin-1-yl)pyrimidin-4-yl)amino)-1-isopropyl-2-oxo-1,2-dihydro-1,8-naphthyridin-3-yl)oxy)-N-methylacetamide]	+++ (30% ≤ Ymin < 50%)	< 0.01 µM
CNC(=O)COc1cc2cc(Nc3nc(N4CCN(CC5CCN(c6ccc7c(C8CCC(=O)NC8=O)nn(C)c7c6)CC5)[C@H](CO)C4)ncc3Cl)cnc2n(C(C)C)c1=O (stereo partly drawn) [Compound 153b, 2-((6-((5-chloro-2-((3S)-4-((1-(3-(2,6-dioxopiperidin-3-yl)-1-methyl-1H-indazol-6-yl)piperidin-4-yl)methyl)-3-(hydroxymethyl)piperazin-1-yl)pyrimidin-4-yl)amino)-1-isopropyl-2-oxo-1,2-dihydro-1,8-naphthyridin-3-yl)oxy)-N-methylacetamide]	+++ (30% ≤ Ymin < 50%)	< 0.01 µM
CNC(=O)COc1cc2cc(Nc3nc(N4CCC(C(C)(C)N5CCN(c6ccc7c(C8CCC(=O)NC8=O)nn(C)c7c6)CC5)CC4)ncc3Cl)cnc2n(C(C)C)c1=O (stereo not shown) [Compound 171, 2-[[6-[[5-chloro-2-[4-[1-[4-[3-(2,6-dioxo-3-piperidyl)-1-methyl-indazol-6-yl]piperazin-1-yl]-1-methyl-ethyl]-1-piperidyl]pyrimidin-4-yl]amino]-1-isopropyl-2-oxo-1,8-naphthyridin-3-yl]oxy]-N-methyl-acetamide]	++ (50% ≤ Ymin < 70%)	< 0.01 µM
CNC(=O)COc1cc2cc(Nc3nc(N4CCC(CN5CCN(c6cccc7c(C8CCC(=O)NC8=O)nn(C)c67)CC5)CC4)ncc3Cl)cnc2n(C)c1=O (stereo not shown) [Compound 132, 2-((6-((5-chloro-2-(4-((4-(3-(2,6-dioxopiperidin-3-yl)-1-methyl-1H-indazol-7-yl)piperazin-1-yl)methyl)piperidin-1-yl)pyrimidin-4-yl)amino)-1-methyl-2-oxo-1,2-dihydro-1,8-naphthyridin-3-yl)oxy)-N-methylacetamide]	++++ (Ymin < 30%)	< 0.01 µM
CNC(=O)COc1cc2cc(Nc3nc(N4CCC(Oc5ccc6c(C7CCC(=O)NC7=O)nn(C)c6c5)CC4)ncc3Cl)cnc2n(C(C)C)c1=O (stereo not shown) [Compound 164, 2-[[6-[[5-chloro-2-[4-[3-(2,6-dioxo-3-piperidyl)-1-methyl-indazol-6-yl]oxy-1-piperidyl]pyrimidin-4-yl]amino]-1-isopropyl-2-oxo-1,8-naphthyridin-3-yl]oxy]-N-methyl-acetamide]	+++ (30% ≤ Ymin < 50%)	< 0.01 µM
